In patent US11566007B2, “Ras inhibitors” (Revolution Medicines, Inc., priority 2019, dated 2023):

Columns and labels:
[1] = test system: NCI-H358 (K-Ras G12C); experiment: CellTiter-Glo cell viability assay, NCI-H358; assay type: cell-based, human; details: Homo sapiens, NCI-H358, 120 h, NCI-H358, 5-day treatment; class symbols; read-out: Additional H358 Cell Viability assay data (K-Ras G12C, IC50)
Method in brief: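 Cells seeded, compound added directly, 5-day exposure. Plates to RT ~30 min, CellTiter-Glo luminescence read. Normalized to DMSO avg (x100); 4-parameter logistic fit.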

[2] = target: K-Ras G12C (Homo sapiens (Human), UniProt P01116+P62937, G12C); experiment: Ras-Raf (BRAF RBD) disruption / FRET / MOA assay, KRAS G12C; assay type: biochemical; details: KRAS G12C; Ras-Raf disruption/FRET/MOA assay; read-out: IC50* KRAS G12C FRET data
Method in brief: (§1)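 A 10-point, 3-fold dilution series topping at 30 μM final was incubated 3 h at 25° C with the Ras/cyclophilin A/BRAF RBD mixture.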

[3] = target: K-Ras G13C (Homo sapiens (Human), UniProt P01116+P62937, G13C); experiment: Ras-Raf (BRAF RBD) disruption / FRET / MOA assay, KRAS G13C; assay type: biochemical; details: KRAS G13C; Ras-Raf disruption/FRET/MOA assay; read-out: IC50* KRAS G13C FRET data
Method in brief: as §1

[4] = target: KRAS G12S (Homo sapiens (Human), UniProt P01116+P62937, G12S); experiment: Ras-Raf (BRAF RBD) disruption / FRET / MOA assay, KRAS G12S; assay type: biochemical; details: Ras-Raf disruption/FRET/MOA assay; class symbols; read-out: KRAS G12S FRET data IC50
Method in brief: as §1

[5] = target: KRAS G12V (Homo sapiens (Human), UniProt P01116+P62937, G12V); experiment: Ras-Raf (BRAF RBD) disruption / FRET / MOA assay, KRAS G12V; assay type: biochemical; details: read-out: IC50* KRAS G12V FRET data
Method in brief: as §1

[6] = target: KRAS WT (Homo sapiens (Human), UniProt P01116+P62937); experiment: Ras-Raf (BRAF RBD) disruption / FRET / MOA assay, KRAS WT; assay type: biochemical; details: read-out: IC50* KRAS WT FRET data
Method in brief: as §1

[7] = target: KRAS G13D (Homo sapiens (Human), UniProt P01116+P62937, G13D); experiment: Ras-Raf (BRAF RBD) disruption / FRET / MOA assay, KRAS G13D; assay type: biochemical; details: read-out: IC50* KRAS G13D FRET data
Method in brief: as §1

[8] = target: KRAS Q61H (Homo sapiens (Human), UniProt P01116+P62937, Q61H); experiment: Ras-Raf (BRAF RBD) disruption / FRET / MOA assay, KRAS Q61H; assay type: biochemical; details: Ras-Raf disruption/FRET/MOA assay; class symbols; read-out: KRAS Q61H FRET data IC50
Method in brief: (§2)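 Compounds (30 μM top final, 10-point 3-fold dilutions) incubated 3 h at 25° C with nucleotide-loaded Ras, cyclophilin A and BRAF RBD. Detection with 10 nM anti-His Eu-W1024 and 50 nM anti-GST allophycocyanin over another 1.5 h. Lowered TR-FRET ratio relative to DMSO wells gives IC50.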

[9] = target: NRAS Q61K (Homo sapiens (Human), UniProt P01111+P62937, Q61K); experiment: Ras-Raf (BRAF RBD) disruption / FRET / MOA assay, NRAS Q61K; assay type: biochemical; details: NRAS Q61K; Ras-Raf disruption/FRET/MOA assay; read-out: IC50* NRAS Q61K FRET data
Method in brief: as §2

Chain of K-Ras G13C (P01116-2 other isoform, or with tags, fused parts or gaps G13C): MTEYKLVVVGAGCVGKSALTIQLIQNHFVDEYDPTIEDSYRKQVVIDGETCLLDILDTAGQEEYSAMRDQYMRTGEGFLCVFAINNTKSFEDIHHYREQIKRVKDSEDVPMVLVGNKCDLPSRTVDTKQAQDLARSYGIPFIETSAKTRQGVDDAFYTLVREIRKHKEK
Chain of K-Ras G13C (P62937 whole entry): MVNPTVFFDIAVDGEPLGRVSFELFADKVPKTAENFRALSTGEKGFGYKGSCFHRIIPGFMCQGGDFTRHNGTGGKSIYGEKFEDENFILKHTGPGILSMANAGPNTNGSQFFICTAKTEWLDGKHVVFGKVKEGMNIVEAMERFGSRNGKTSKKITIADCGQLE
Chain of KRAS G13D (P01116-2 other isoform, or with tags, fused parts or gaps G13D): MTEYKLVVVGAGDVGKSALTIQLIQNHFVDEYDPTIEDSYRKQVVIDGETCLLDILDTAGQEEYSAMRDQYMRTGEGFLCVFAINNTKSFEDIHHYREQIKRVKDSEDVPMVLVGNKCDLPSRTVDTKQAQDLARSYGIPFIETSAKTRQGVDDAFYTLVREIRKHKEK
Chain of KRAS G13D (P62937 whole entry): as the sequence (P62937 whole entry) above
Chain of K-Ras G12C (P01116-2 other isoform, or with tags, fused parts or gaps G12C): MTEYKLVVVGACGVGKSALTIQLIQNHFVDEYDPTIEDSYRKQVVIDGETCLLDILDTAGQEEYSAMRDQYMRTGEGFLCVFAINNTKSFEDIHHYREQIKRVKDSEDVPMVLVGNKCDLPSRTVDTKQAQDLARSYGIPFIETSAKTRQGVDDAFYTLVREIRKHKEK
Chain of K-Ras G12C (P62937 whole entry): as the sequence (P62937 whole entry) above
Chain of NRAS Q61K (P01111 whole entry Q61K): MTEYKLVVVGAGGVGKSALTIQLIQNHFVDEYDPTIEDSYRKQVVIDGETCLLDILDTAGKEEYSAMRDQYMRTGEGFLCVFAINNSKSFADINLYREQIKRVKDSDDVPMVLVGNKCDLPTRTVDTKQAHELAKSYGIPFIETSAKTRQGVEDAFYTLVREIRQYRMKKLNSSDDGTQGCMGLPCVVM
Chain of NRAS Q61K (P62937 whole entry): as the sequence (P62937 whole entry) above
Chain of KRAS Q61H (P01116-2 other isoform, or with tags, fused parts or gaps Q61H): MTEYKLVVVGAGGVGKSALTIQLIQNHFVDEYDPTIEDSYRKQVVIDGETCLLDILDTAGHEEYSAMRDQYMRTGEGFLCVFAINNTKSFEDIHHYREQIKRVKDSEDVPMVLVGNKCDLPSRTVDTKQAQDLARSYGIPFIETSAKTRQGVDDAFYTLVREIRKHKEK
Chain of KRAS Q61H (P62937 whole entry): as the sequence (P62937 whole entry) above
Chain of KRAS G12S (P01116-2 other isoform, or with tags, fused parts or gaps G12S): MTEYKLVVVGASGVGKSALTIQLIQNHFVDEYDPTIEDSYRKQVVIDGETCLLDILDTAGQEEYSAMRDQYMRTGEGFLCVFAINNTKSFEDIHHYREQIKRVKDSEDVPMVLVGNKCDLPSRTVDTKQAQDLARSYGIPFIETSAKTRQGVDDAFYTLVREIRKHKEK
Chain of KRAS G12S (P62937 whole entry): as the sequence (P62937 whole entry) above
Chain of KRAS WT (P01116-2 other isoform, or with tags, fused parts or gaps): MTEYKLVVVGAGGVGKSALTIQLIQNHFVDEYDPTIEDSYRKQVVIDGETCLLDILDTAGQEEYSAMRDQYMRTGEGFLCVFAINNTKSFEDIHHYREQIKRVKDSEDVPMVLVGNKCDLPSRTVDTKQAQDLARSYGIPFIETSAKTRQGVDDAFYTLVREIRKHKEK
Chain of KRAS WT (P62937 whole entry): as the sequence (P62937 whole entry) above
Chain of KRAS G12V (P01116-2 other isoform, or with tags, fused parts or gaps G12V): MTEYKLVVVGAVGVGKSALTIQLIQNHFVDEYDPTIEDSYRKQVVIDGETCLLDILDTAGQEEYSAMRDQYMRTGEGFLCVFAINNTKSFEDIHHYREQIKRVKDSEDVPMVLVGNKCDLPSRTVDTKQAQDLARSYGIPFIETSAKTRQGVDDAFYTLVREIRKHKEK
Chain of KRAS G12V (P62937 whole entry): as the sequence (P62937 whole entry) above

Structure (SMILES)	IC50 [1]	IC50 [2]	IC50 [3]	IC50 [4]	IC50 [5]	IC50 [6]	IC50 [7]	IC50 [8]	IC50 [9]
C=CC(=O)N1CC[C@H](C(=O)N(C)[C@H](C(=O)N[C@H]2CC3=NC=C(O3)c3ccc4c(c3)c(c(-c3cccnc3[C@H](C)OC)n4CC)CC(C)(C)COC(=O)[C@@H]3CCCN(N3)C2=O)C(C)C)C1 (atropisomer, axis not shown) [Example A278]	100 to 1000 nM	100 to 1000 nM	1000 to 10000 nM	1000 to 10000 nM	1000 to 10000 nM	1000 to 10000 nM	1000 to 10000 nM	1000 to 10000 nM	1000 to 10000 nM
CCn1c(-c2cccnc2[C@H](C)OC)c2c3cc(ccc31)-c1cccc(c1)C[C@H](NC(=O)[C@H](C(C)C)N(C)C(=O)[C@H]1CCN(C(=O)C#CC(C)(C)N(C)C)C1)C(=O)N1CCC[C@H](N1)C(=O)OCC(C)(C)C2 (atropisomer, axis not shown) [Example A290]	< 10 nM	< 10 nM	1000 to 10000 nM	1000 to 10000 nM	1000 to 10000 nM	1000 to 10000 nM	1000 to 10000 nM	1000 to 10000 nM	1000 to 10000 nM
C=CS(=O)(=O)N1CCC2(CCN([C@H](C(=O)N[C@H]3Cc4cc(O)cc(c4)-c4ccc5c(c4)c(c(-c4cccnc4[C@H](C)OC)n5CC)CC(C)(C)COC(=O)[C@@H]4CCCN(N4)C3=O)C(C)C)C2=O)CC1 (atropisomer, axis not shown) [Example A299]	< 10 nM	< 10 nM	< 10 nM	10 to 100 nM	100 to 1000 nM	10 to 100 nM	100 to 1000 nM	< 10 nM	10 to 100 nM
CO[C@@H](C)c1ncccc1-c1c2c3cc(ccc3n1CC(F)(F)F)-c1csc(n1)C[C@H](NC(=O)[C@@H](COC1CN(C(=O)C#CC(C)(C)N(C)C)C1)C(C)C)C(=O)N1CCC[C@H](N1)C(=O)OCC(C)(C)C2 (atropisomer, axis not shown) [Example A343]	< 10 nM	< 10 nM	1000 to 10000 nM	1000 to 10000 nM	1000 to 10000 nM	1000 to 10000 nM	> 10000 nM	1000 to 10000 nM	1000 to 10000 nM
C=CC(=O)N1CC[C@H](C(=O)N(C)[C@H](C(=O)N[C@H]2Cc3cc(cc(C(F)F)c3)-c3ccc4c(c3)c(c(-c3cc(N5CCN(C)CC5)cnc3[C@H](C)OC)n4CC(F)(F)F)CC(C)(C)COC(=O)[C@@H]3CCCN(N3)C2=O)C(C)C)C1 (atropisomer, axis not shown) [Example A357]	< 10 nM	100 to 1000 nM	100 to 1000 nM	100 to 1000 nM	100 to 1000 nM	100 to 1000 nM	100 to 1000 nM	100 to 1000 nM	1000 to 10000 nM
CO[C@@H](C)c1ncccc1-c1c2c3cc(ccc3n1CC(F)(F)F)-c1cccc(c1)C[C@H](NC(=O)[C@@H](COC1CN(C(=O)C#CC(C)(C)N(C)C)C1)C(C)C)C(=O)N1CCC[C@H](N1)C(=O)OCC(C)(C)C2 (atropisomer, axis not shown) [Example A376]	< 10 nM	< 10 nM	1000 to 10000 nM	1000 to 10000 nM	1000 to 10000 nM	1000 to 10000 nM	> 10000 nM	1000 to 10000 nM	> 10000 nM
C=CC(=O)N1C[C@H](C)N(C(=O)N(C)[C@H](C(=O)N[C@H]2Cc3nc(cs3)-c3ccc4c(c3)c(c(-c3cccnc3[C@H](C)OC)n4CC)CC(C)(C)COC(=O)[C@@H]3CCCN(N3)C2=O)C(C)C)C[C@@H]1C (atropisomer, axis not shown) [Example A385]	< 10 nM	10 to 100 nM	10 to 100 nM	10 to 100 nM	100 to 1000 nM	10 to 100 nM	100 to 1000 nM	10 to 100 nM	10 to 100 nM
C=CC(=O)N1CCC12CN(C(=O)N(C)[C@H](C(=O)N[C@H]1Cc3nc(cs3)-c3ccc4c(c3)c(c(-c3cccnc3[C@H](C)OC)n4CC)CC(C)(C)COC(=O)[C@@H]3CCCN(N3)C1=O)C(C)C)C2 (atropisomer, axis not shown) [Example A393]	10 to 100 nM	100 to 1000 nM	100 to 1000 nM	100 to 1000 nM	1000 to 10000 nM	100 to 1000 nM	1000 to 10000 nM	100 to 1000 nM	100 to 1000 nM
CCn1c(-c2cccnc2[C@H](C)OC)c2c3cc(ccc31)-c1cc(F)cc(c1)C[C@H](NC(=O)[C@@H](COC1CN(C(=O)C#CC(C)(C)N(C)C)C1)C(C)C)C(=O)N1CCC[C@H](N1)C(=O)OCC(C)(C)C2 (atropisomer, axis not shown) [Example A403]	< 10 nM	< 10 nM	1000 to 10000 nM	> 10000 nM	1000 to 10000 nM	> 10000 nM	> 10000 nM	1000 to 10000 nM	> 10000 nM
C=CC(=O)N1CC2(CCN2C(=O)N(C)[C@H](C(=O)N[C@H]2Cc3nc(cs3)-c3ccc4c(c3)c(c(-c3cccnc3[C@H](C)OC)n4CC)CC(C)(C)COC(=O)[C@@H]3CCCN(N3)C2=O)C(C)C)C1 (atropisomer, axis not shown) [Example A407]	< 10 nM	< 10 nM	100 to 1000 nM	100 to 1000 nM	100 to 1000 nM	100 to 1000 nM	100 to 1000 nM	10 to 100 nM	10 to 100 nM
C=CC(=O)N1CC[C@H](C(=O)N(C)[C@H](C(=O)N[C@H]2CC3=NN=C(O3)c3ccc4c(c3)c(c(-c3cccnc3[C@H](C)OC)n4CC)CC(C)(C)COC(=O)[C@@H]3CCCN(N3)C2=O)C(C)C)C1 (atropisomer, axis not shown) [Example A447]	100 to 1000 nM	100 to 1000 nM	1000 to 10000 nM	1000 to 10000 nM	1000 to 10000 nM	1000 to 10000 nM	> 10000 nM	1000 to 10000 nM	> 10000 nM
C=CC(=O)Nc1ncc(C(=O)N(C)[C@H](C(=O)N[C@H]2Cc3cccc(c3)-c3ccc4c(c3)c(c(-c3cccnc3[C@H](C)OC)n4CC)CC(C)(C)COC(=O)[C@@H]3CCCN(N3)C2=O)C(C)C)n1C (atropisomer, axis not shown) [Example A474]	< 10 nM	< 10 nM	< 10 nM	1000 to 10000 nM	1000 to 10000 nM	1000 to 10000 nM	1000 to 10000 nM	100 to 1000 nM	1000 to 10000 nM
C=CC(=O)N1CC[C@H](C(=O)N2CC[C@H](C)[C@H]2C(=O)N[C@H]2Cc3cccc(c3)-c3ccc4c(c3)c(c(-c3cccnc3[C@H](C)OC)n4CC)CC(C)(C)COC(=O)[C@@H]3CCCN(N3)C2=O)C1 (atropisomer, axis not shown) [Example A494]	100 to 1000 nM	100 to 1000 nM	1000 to 10000 nM	> 10000 nM	> 10000 nM	1000 to 10000 nM	> 10000 nM	100 to 1000 nM	1000 to 10000 nM
C=CC(=O)N1CC[C@H](C(=O)N2CCCCC[C@H]2C(=O)N[C@H]2Cc3cccc(c3)-c3ccc4c(c3)c(c(-c3cccnc3[C@H](C)OC)n4CC)CC(C)(C)COC(=O)[C@@H]3CCCN(N3)C2=O)C1 (atropisomer, axis not shown) [Example A496]	100 to 1000 nM	1000 to 10000 nM	1000 to 10000 nM	> 10000 nM	> 10000 nM	> 10000 nM	> 10000 nM	1000 to 10000 nM	1000 to 10000 nM
CCn1c(-c2cccnc2[C@H](C)OC)c2c3cc(ccc31)-c1cccc(c1)C[C@H](NC(=O)[C@H](C(C)C)N1CC[C@]3(CCN(C(=O)C#CC(C)(C)N(C)C)C3)C1=O)C(=O)N1CCC[C@H](N1)C(=O)OCC(C)(C)C2 (atropisomer, axis not shown) [Example A534, (2S)-2-((S)-7-(4-(dimethylamino)-4-methylpent-2-ynoyl)-1-oxo-2,7-diazaspiro[4.4]nonan-2-yl)-N-((6^3S,4S)-1^1-ethyl-1^2-(2-((S)-1-methoxyethyl)pyridin-3-yl)-10,10-dimethyl-5,7-dioxo-6^1,6^2,6^3,6^4,6^5,6^6-hexahydro-1^1H-8-oxa-1(5,3)-indola-6(1,3)-pyridazina-2(1,3)-benzenacycloundecaphane-4-yl)-3-methylbutanamide]	< 10 nM	< 10 nM	100 to 1000 nM	1000 to 10000 nM	1000 to 10000 nM	1000 to 10000 nM	1000 to 10000 nM	100 to 1000 nM	1000 to 10000 nM
